Values of other authors as cited in US6953823B2, “Elastomeric insulating composition for a solid propellant rocket motor” (Chung Shan Institute of Science and Technology, priority 2003, dated 2005).

Test system: rats

[OH-].[OH-].[OH-].[OH-].[OH-].[OH-].[Sn+4].[Zn+2] [Zinc Hydroxystannate, zinc hydroxystannate]
Oral Toxicity (LD50, rats): >5 gr/kg
